Assay [1] has as its system Feces enterococci (VSE clinical isolates: MEFA 0039). The assay is described as follows: In vitro antibacterial activity, agar two times dilution method, MIC. The format is cell-based. The settings on record: for MIC Values of Compounds, Enterococci: agar dilution, VSE clinical isolate MEFA 0039. The source says:
(§1) Testing results of in vitro antibacterial activity of some target compounds of the present invention are as follows:
(§2) Drugs: firstly being dissolved in DMSO, and then being diluted to an appropriate concentration with sterile water, and afterwards successively being diluted for twice.
(§3) Determination: referencing the standard of CSSI 2008 version, using a agar two times dilution method, determine the minimum inhibitory concentration (MIC values).
(§4) Feces enterococci (VSE clinical isolates: MEFA 0039); Streptococcus pneumoniae (PISP: ATCC 49619).
(§5) 3. Positive Control Drug is Vancomycin Hydrochloride.

For assay [2], the system named is Streptococcus pneumoniae (PISP: ATCC 49619). Described as above. The format is cell-based. The following applies: for MIC Values of Compounds, Streptococcus pneumoniae: agar dilution, PISP ATCC 49619.
Excerpt: as §1, §2, §3, §4, §5

Structures can show the parent of a compound that is named as a salt.

The MIC is the lowest concentration that inhibits growth of the organism.

`CCN(CC)Cc1c(O)cc2c(c1O)-c1cc(ccc1O)C1NC(=O)C3NC(=O)C(CC(N)=O)NC(=O)C(N4CN(C)C(CC(C)C)C4=O)C(O)c4ccc(c(Cl)c4)Oc4cc3cc(c4OC3OC(CO)C(O)C(O)C3OC3CC(C)(NCc4ccc(Br)cc4)C(O)C(C)O3)Oc3ccc(cc3Cl)C(OC3CC(C)(N)C(O)C(C)O3)C(NC1=O)C(=O)NC2C(=O)O` (centres unmarked) [II7]: in assay [1], the “MIC Values of Compounds, Enterococci” value was determined as 1 µg/mL. For the same molecule, in assay [2], the “MIC Values of Compounds, Streptococcus pneumoniae” value was 0.25 µg/mL.
In the case of `CCN(CC)Cc1c(O)cc2c(c1O)-c1cc(ccc1O)C1NC(=O)C3NC(=O)C(CC(N)=O)NC(=O)C(N4CN(C)C(CC(C)C)C4=O)C(O)c4ccc(c(Cl)c4)Oc4cc3cc(c4OC3OC(CO)C(O)C(O)C3OC3CC(C)(NCc4ccc(OC)cc4)C(O)C(C)O3)Oc3ccc(cc3Cl)C(OC3CC(C)(N)C(O)C(C)O3)C(NC1=O)C(=O)NC2C(=O)O` (centres unmarked) [II8], the “MIC Values of Compounds, Enterococci” value in assay [1] is 1 µg/mL. In assay [2], the “MIC Values of Compounds, Streptococcus pneumoniae” value came out at 0.25 µg/mL.
In the same order, the values of `CC(C)CC1C(=O)N(C2C(=O)NC(CC(N)=O)C(=O)NC3C(=O)NC4C(=O)NC(C(=O)NC(C(=O)O)c5cc(O)c(CN6CCOCC6)c(O)c5-c5cc4ccc5O)C(OC4CC(C)(N)C(O)C(C)O4)c4ccc(c(Cl)c4)Oc4cc3cc(c4OC3OC(CO)C(O)C(O)C3OC3CC(C)(NCc4ccc(C(C)C)cc4)C(O)C(C)O3)Oc3ccc(cc3Cl)C2O)CN1C` (centres unmarked) [II9] are 1 µg/mL and 0.25 µg/mL.
Turning to `CN[C@H](CC(C)C)C(=O)N[C@H]1C(=O)N[C@@H](CC(N)=O)C(=O)N[C@H]2C(=O)N[C@H]3C(=O)N[C@H](C(=O)N[C@H](C(=O)O)c4cc(O)cc(O)c4-c4cc3ccc4O)[C@H](O)c3ccc(c(Cl)c3)Oc3cc2cc(c3O[C@@H]2O[C@H](CO)[C@@H](O)[C@H](O)[C@H]2O[C@H]2C[C@](C)(N)[C@H](O)[C@H](C)O2)Oc2ccc(cc2Cl)[C@H]1O` [vancomycin hydrochloride, reference compound], the minimum inhibitory concentration (MIC) amounted to 0.25 µg/mL in assay [1] (read-out: MIC Values of Compounds, Enterococci) and 0.125 µg/mL in assay [2] (Streptococcus pneumoniae, ATCC49619, read-out: MIC Values of Compounds, Streptococcus pneumoniae).

For the origin of these results see patent publication US9982019B2, “Glycopeptide compound or pharmaceutical salt thereof and method for preparing same, and pharmaceutical compositions and applications thereof” (priority 2012, dated 2018).
